Experimental data from patent publication US20050112573A1, “Method of detecting toxic substance” (priority 2001, published 2005).

System: yeast genes (level of expressed mRNA)
Assay: DNA chip analysis of expressed mRNA of yeast genes after 2 h culture with a toxic chemical substance
Format: cell-based, Saccharomyces cerevisiae S288C
Protocol: Yeast (Saccharomyces cerevtisiae S288C (α SUC2mal mel gap2 CUP1)) were cultured at 25° C. on YPD medium (yeast extract 1%, polypepton 2%, glucose 2%). One of toxic chemical substances was added to the cell at logarithmic growth phase, and the cell was further cultured for two hours. Cell was cultured without any chemical substance in the same condition, and was used as control. Concentrations of the chemical substances were defined to inhibit the growth of the yeast but not lead to death.
After the completion of cultivation, the culture was centrifuged to collect the cells. To the cells, sodium acetate buffer (50 mM sodium acetate, 10 mM EDTA, 1% SDS) was added, and the mixture was shaken at 65° C. for five minutes, followed by returning to room temperature, and obtaining the supernatant, which procedure was repeated two times. To the supernatant, ½ amount of a solution of phenol/chloroform was added, and the mixture was centrifuged to give a supernatant, which was added with an equal amount of chloroform, and the mixture was centrifuged to give a supernatant. To the supernatant, an equal amount of isopropanol containing 0.3 M sodium acetate was added, and the mixture was allowed to stand at room temperature for 30 minutes, after which the mixture was centrifuged to give a sediment of the whole RNAs. Seventy % ethanol was added to the sediment, and the mixture was again centrifuged to give a sediment, which was then dried and dissolved in water. mRNA was isolated from the whole RNAs as followings. In view of the fact that a poly A chain is attached to the 3′ terminus of mRNA, a polynucleotide having a poly T structure which was immobilized on the surface of latex beads was used to trap the mRNA, and then the mRNA was washed and eluted with spine column (Oligotex-dT30<Super>mRNA Purification Kit, Takara). Reverse transcription of the mRNA was conducted with a reverse transcriptase (Super Script II Reverse Transcriptase; catalogue No. 18064-014, GibcoBRL) using fluorescence-labeled nucleotides to give cDNAs that were introduced with Cy3-dUTP or Cy5-dUTP during the reverse transcription.
The labeled cDNAs were dissolved in TE buffer (10 mM Tris-HCl/1 mM EDTA, pH8.0), and the solution was dropped on the DNA chip containing the whole genes of yeast (DNA Chip Research Inc. Japan) so that the cDNAs were hybridized on the DNA chip at 65° C. for over 12 hours. The fluoresces intensity of the DNA chip was read with a scanner, and the ratio relative to the fluorescence intensity resulting from the absence of chemical substance was estimated as the following, which is shown in Tables 1 to 9: [formula]
In the Tables, “Intensity” indicated in the rightmost column is a value of the level of expressed mRNA of each gene in control cells as divided by the average level of the expressions of the whole genes.

HgCl2 [(3)]
The level of expressed mRNA in the presence of chemical substance/ (yeast gene YAL053W, ratio to control without chemical): 1.3 | The level of expressed mRNA in the presence of chemical substance/The level of expressed mRNA in the absence of chemical substance (yeast gene YAR010C): 1.2 | The level of expressed mRNA in the presence of chemical substance/The level of expressed mRNA in the absence of chemical substance (yeast gene YBL005W-A): 0.5 | The level of expressed mRNA in the presence of chemical substance/The level of expressed mRNA in the absence of chemical substance (yeast gene YBL041W): 0.9 | The level of expressed mRNA in the presence of chemical substance/The level of expressed mRNA in the absence of chemical substance (yeast gene YBL043W): 1.1 | The level of expressed mRNA in the presence of chemical substance/ (yeast gene YBL048W, ratio to control without chemical substance, 2 h culture): 2.3 | The level of expressed mRNA in the presence of chemical substance/The level of expressed mRNA in the absence of chemical substance (yeast gene YBL078C): 1.3 | The level of expressed mRNA in the presence of chemical substance/ (yeast gene YBL107C, ratio to control without chemical substance, 2 h culture): 0.4 | The level of expressed mRNA in the presence of chemical substance/in the absence of chemical substance (yeast gene YBR036C): 1.8 | The level of expressed mRNA in the presence of chemical substance/The level of expressed mRNA in the absence of chemical substance (yeast gene YBR214W): 5.7 | The level of expressed mRNA in the presence of chemical substance/in the absence of chemical substance (yeast gene YBR298C): 1.6 | The level of expressed mRNA in the presence of chemical substance/The level of expressed mRNA in the absence of chemical substance (yeast gene YCL020W): 0.5 | The level of expressed mRNA in the presence of chemical substance/The level of expressed mRNA in the absence of chemical substance (yeast gene YCL027W): 1.0 | The level of expressed mRNA in the presence of chemical substance/The level of expressed mRNA in the absence of chemical substance (yeast gene YCR004C): 12.0 | The level of expressed mRNA in the presence of chemical substance/The level of expressed mRNA in the absence of chemical substance (yeast gene YCR071C): 0.9 | The level of expressed mRNA in the presence of chemical substance/The level of expressed mRNA in the absence of chemical substance (yeast gene YCR088W): 1.2 | The level of expressed mRNA in the presence of chemical substance/The level of expressed mRNA in the absence of chemical substance (yeast gene YDL008W): 1.0 | The level of expressed mRNA in the presence of chemical substance/ (yeast gene YDL072C, ratio to control without chemical): 3.5 | The level of expressed mRNA in the presence of chemical substance/in the absence of chemical substance (yeast gene YDL078C): 1.2 | The level of expressed mRNA in the presence of chemical substance/ (yeast gene YDL204W, ratio to control without chemical): 4.8 | The level of expressed mRNA in the presence of chemical substance/in the absence of chemical substance (yeast gene YDL215C): 1.0 | The level of expressed mRNA in the presence of chemical substance/ (yeast gene YDL222C, ratio to control without chemical): 1.5 | The level of expressed mRNA in the presence of chemical substance/The level of expressed mRNA in the absence of chemical substance (yeast gene YDL238C): 1.1 | The level of expressed mRNA in the presence of chemical substance/The level of expressed mRNA in the absence of chemical substance (yeast gene YDR055W): 2.2 | The level of expressed mRNA in the presence of chemical substance/The level of expressed mRNA in the absence of chemical substance (yeast gene YDR084C): 1.5 | The level of expressed mRNA in the presence of chemical substance/The level of expressed mRNA in the absence of chemical substance (yeast gene YDR085C): 1.6 | The level of expressed mRNA in the presence of chemical substance/The level of expressed mRNA in the absence of chemical substance (yeast gene YDR104C): 1.2 | The level of expressed mRNA in the presence of chemical substance/The level of expressed mRNA in the absence of chemical substance (yeast gene YDR115W): 0.6 | The level of expressed mRNA in the presence of chemical substance/The level of expressed mRNA in the absence of chemical substance (yeast gene YDR259C): 0.4 | The level of expressed mRNA in the presence of chemical substance/in the absence of chemical substance (yeast gene YDR297W): 0.8 | The level of expressed mRNA in the presence of chemical substance/The level of expressed mRNA in the absence of chemical substance (yeast gene YDR315C): 1.0 | The level of expressed mRNA in the presence of chemical substance/ (yeast gene YDR330W, ratio to control without chemical substance, 2 h culture): 1.2 | The level of expressed mRNA in the presence of chemical substance/The level of expressed mRNA in the absence of chemical substance (yeast gene YDR358W): 0.7 | The level of expressed mRNA in the presence of chemical substance/in the absence of chemical substance (yeast gene YDR387C): 1.2 | The level of expressed mRNA in the presence of chemical substance/The level of expressed mRNA in the absence of chemical substance (yeast gene YDR388W): 1.2 | The level of expressed mRNA in the presence of chemical substance/ (yeast gene YDR411C, ratio to control without chemical substance, 2 h culture): 1.8 | The level of expressed mRNA in the presence of chemical substance/The level of expressed mRNA in the absence of chemical substance (yeast gene YDR432W): 1.0 | The level of expressed mRNA in the presence of chemical substance/The level of expressed mRNA in the absence of chemical substance (yeast gene YDR481C): 1.3 | The level of expressed mRNA in the presence of chemical substance/The level of expressed mRNA in the absence of chemical substance (yeast gene YDR510W): 1.5 | The level of expressed mRNA in the presence of chemical substance/ (yeast gene YDR511W, ratio to control without chemical substance, 2 h culture): 0.9 | The level of expressed mRNA in the presence of chemical substance/ (yeast gene YDR545W, ratio to control without chemical substance, 2 h culture): 0.6 | The level of expressed mRNA in the presence of chemical substance/ (yeast gene YEL001C, ratio to control without chemical): 1.4 | The level of expressed mRNA in the presence of chemical substance/The level of expressed mRNA in the absence of chemical substance (yeast gene YEL042W): 1.7 | The level of expressed mRNA in the presence of chemical substance/The level of expressed mRNA in the absence of chemical substance (yeast gene YEL066W): 1.5 | The level of expressed mRNA in the presence of chemical substance/ (yeast gene YER004W, ratio to control without chemical substance, 2 h culture): 1.9 | The level of expressed mRNA in the presence of chemical substance/ (yeast gene YER035W, ratio to control without chemical substance, 2 h culture): 1.6 | The level of expressed mRNA in the presence of chemical substance/The level of expressed mRNA in the absence of chemical substance (yeast gene YER039C): 1.0 | The level of expressed mRNA in the presence of chemical substance/ (yeast gene YER079W, ratio to control without chemical substance, 2 h culture): 1.9 | The level of expressed mRNA in the presence of chemical substance/ (yeast gene YER106W, ratio to control without chemical): 1.3 | The level of expressed mRNA in the presence of chemical substance/The level of expressed mRNA in the absence of chemical substance (yeast gene YER107C): 1.0 | The level of expressed mRNA in the presence of chemical substance/The level of expressed mRNA in the absence of chemical substance (yeast gene YER130C): 0.5 | The level of expressed mRNA in the presence of chemical substance/ (yeast gene YER158C, ratio to control without chemical substance, 2 h culture): 0.9 | The level of expressed mRNA in the presence of chemical substance/ (yeast gene YER163C, ratio to control without chemical substance, 2 h culture): 1.2 | The level of expressed mRNA in the presence of chemical substance/ (yeast gene YER175C, ratio to control without chemical substance, 2 h culture): 1.3 | The level of expressed mRNA in the presence of chemical substance/ (yeast gene YFL006W, ratio to control without chemical substance, 2 h culture): 1.6
